What all share (type): in vivo
The subject of assay [1] is Aspergillus flavus. The assay can be described thus: Aspergillus flavus pulmonary infection model in compromised mice, oral treatment.
Assay [2] has as its system Aspergillus flavus. The assay is described as above. To be noted: for %SURVIVAL / %ANIMALS NEG: 18 days post infection; for %SURVIVAL: compromised CF-1 mice; for %ANIMALS NEG: negative = <10 colonies. The text has this:
The in vivo oral antifungal activity of the compounds of Example 23-26 were compared to those of itraconazole, fluconazole and saperconazole in an Aspergillus pulmonary infection model in mice. The procedure of David Loebenberg et al. entitled "Sch 42427, The Active Enantiomer of Antifungal agent Sch 39304: In Vitro and In Vivo Activity" Antimicrobial Agents and Chemotherapy (1992), 36 498-501 was used. The Aspergillus flavus pulmonary model was run in the following manner Male, CF-1 mice weighing 20 grams were compromised with cortisone acetate (100 mg/kg), administered subcutaneously, once daily for 3 days. In addition, to prevent bacterial disease, tetracycline HCL (300 mg/1) was added to the drinking water and given ad libitum. On day 2 of compromising, mice were infected in an inhalation chamber, first described by Piggot and Emmons in 1960 and modified by us. The chamber is a 1 liter pyrex, thick-walled flask with 8 tubular side-arms that extend into the flask. Each side-arm is a pyrex tube of 14 cm length, constricted to a 1 cm opening inside the flask. The bottom of the flask was covered with a malt extract agar medium on which a sporulating culture of A. flavus ATCC 24133 was grown for 13 days at room temperature. The top of the flask was closed with a #10 stopper through which passed a glass tube attached by rubber tubing to a 60 mL syringe. Mice were placed in each of the side arms and pushed to the bottoms so that their nares extended beyond the open end of the tube and over the agar. Cotton plugs were then inserted behind the mice to hold them in place. By pumping the 60 mL syringe twice, air was forced over the culture and produced a cloud of spores. Mice were exposed to the spore cloud for one minute. Within 15-30 minutes after exposure, a number of mice were sacrificed and lung tissue samples homogenized for culture to determine the number of inhaled conidia. Oral treatment began 24 h post-infection with doses of 5 to 250 mg of drug/kg in ethanol; vehicle (115 ml of Emulphor EL-719P, GAF, Wayne, NJ; and 5 ml of 20% w/v lactic acid per liter of water), 10:90 v/v, once daily for 4 days.
The procedure of Example 31 was used to compare the in vivo oral antifungal activity of (±)-5R/S-(cis)-4-[4-[4-[4-[[5-(2,4-difluorophenyl)-5-(1H-1,2,4-triazol-1-ylmethyl) tetrahydrofuran-3-yl]methoxy-phenyl-1-piperazinyl]phenyl]-2,4-dihydro-2[(R/S)-(1-methylpropyl)]-3H-1,2,4-triazol-3-one with (±)-2R/S-(cis)-1-[4-[[2-(2,4-difluorophenyl)-2-(1H-1,2,4-triazol-1-ylmethyl) tetrahydro-4-furanyl]methoxy]phenyl]-4-(1-methylethyl)piperazine of Example 68 of USP 5,039,676 in an Aspergillus pulmonary infection model described in Example 31. […]
The procedures of Examples 31 and 34 were used.

The subject of another assay is C. albicans C-43. The assay can be described thus: Candida systemic model in CF1 mice infected IV with C. albicans C-43, oral treatment. Particulars: for %SURVIVAL: day 4 post-infection; for CFUs (GM): day 4, geometric mean of the logarithms of CFU remaining in the kidneys (dead mice counted as 10^9). The procedure: The compounds of Examples 23-26 and itraconazole, fluconazole, and saperconazole were tested for in vivo oral antifungal activity in a Candida systemic model using CF1 male mice , average weight 20 g, Harlan Sprague Dawley, Inc., Indianapolis, Ind. infected by IV injection into the tail vein of C. albicans C-43 (5 million CFUs). […] Oral efficacy was measured after four (4) days by percent survival and by the number of organisms remaining in the kidneys i.e., the Colony Forming Units (CFUs). The mice were sacrificed and the kidneys of individual mice were homogenized in sterile saline, diluted and spread onto Mycosel agar. Colony counts were determined after 48 hours at 37°C. For calculation of geometric means, mice that died during the experiment were considered to have 10^9 CFUs/kidneys (based on numerous previous experiments).

The test system of a further assay is C. albicans C-65. As to the kind of experiment: Candida systemic model in normal and compromised CF1 mice infected with C. albicans C-65, oral treatment. Particulars: normal and compromised mice; result in words (text refers to Tables II and V). As to the method: The compounds of Examples 23-26 and itraconazole, fluconazole, and saperconazole were tested for in vivo oral antifungal activity in a Candida systemic model using CF1 male mice , average weight 20 g, Harlan Sprague Dawley, Inc., Indianapolis, Ind. infected by IV injection into the tail vein of C. albicans C-43 (5 million CFUs). The drugs were dissolved in polyethylene glycol-200 (PEG-200) and tested by orally administering 50, 25 and 10 mpk of each drug 4 hours post infection and once daily for 3 more days. Oral efficacy was measured after four (4) days by percent survival and by the number of organisms remaining in the kidneys i.e., the Colony Forming Units (CFUs). The mice were sacrificed and the kidneys of individual mice were homogenized in sterile saline, diluted and spread onto Mycosel agar. Colony counts were determined after 48 hours at 37°C. For calculation of geometric means, mice that died during the experiment were considered to have 10^9 CFUs/kidneys (based on numerous previous experiments).
The compounds of Examples 23-24 and itraconazole, fluconazole, were tested for in vivo oral antifungal anctivity in a Candida systemic model using normal and compromised CF1 mice infected with C. albicans C-65 (5 million CFUs). The procedure of Example 33 was followed. The drugs were dissolved in polyethylene glycol-200 ("PEG-200) at room temperature and tested by orally administering 100, 50, 25, 10 and 1 mpk of each drug. Oral efficacy was measured by percent survival and by the number of organisms remaining in the kidneys (CFUs) after four days. […] The pharmaceutical composition of the preferred compound of formula IIb of Eample 24 in hydroxypropyl beta cyclodextrin ("HPβCD") having 7.4 hydroxypropyl groups per HPβCD (obtained from Pharmatec, Inc., Alachua, FL 32615) was prepared by admixing the appropriate amount of the compound IIa with a 40% (w/v) solution of HPβCD (4 g of HPβCD per 10 mL of purified water). Gentle heating was used to form a clear solution. For the 10 mpk dose, 12 mg of Ha was added to 6 mL of a 40% w/v solution of HPβCD. For dilutions, sterile water was added to the solution with mixing. The pharmaceutical composition of itraconazole and the Pharmatec HPβCD described above was prepared as follows. Propylene glycol (10 mL) was admixed with 0.95 mL of concentrated HCI at 40°-45°C with stirring. Itraconazole (2.5 g) was added thereto and stirring was continued until homogeneous. The mixture so formed was cooled to 20° to 30°C and admixed with a solution of 60 g of HPβCD in 40 mL of purified water to form a clear solution. The pH was adjusted to a value of 1.9-2.1 with 10N NaOH and sufficient purified water added (with mixing) to a final volume of 100 mL. For dilutions, sterile water was added to the itraconazole - HPβCD.

Another assay concerns Candida. The assay can be described thus: Candida vaginal infection in a hamster model. Particulars: result in words.
Where [3] appears, read: 33 mg/kg PO once a day for 4 days.
The mark [4] stands for this setting: 66 mg/kg PO once a day for 4 days.
[5] abbreviates: 100 mg/kg PO once a day for 4 days.
Setting [6] is: 50 MPK PO in PEG-200, 1 a day x 4 days.

As to `CC[C@@H](C)n1ncn(-c2ccc(N3CCN(c4ccc(OC[C@H]5CO[C@](Cn6cncn6)(c6ccc(F)cc6F)C5)cc4)CC3)cc2)c1=O` [Example 26, (+)-[(5S)-cis]-4-[4-[4-[4-[[5-(2,4-Difluorophenyl)-5-(1H-1,24-triazol-1-ylmethyl)tetrahydrofuran-3-yl]methoxy]phenyl]-1-piperazinyl]phenyl]-2,4-dihydro-2-[(1R)-(1-methylpropyl)]-3H-1,2,4-triazol-3-one], the “%SURVIVAL” value with Aspergillus flavus [1] (33 mg/kg PO [3RX/DAY] for 4 days, 18 days post infection, compromised CF-1 mice) is given as 0%; in the assay on Aspergillus flavus [2] (setting [3]), 0%; with Aspergillus flavus [2] (setting [4]), 0%; in the assay on Aspergillus flavus [2] (setting [5]), 20%; with C. albicans C-43 (10 MPK PO in PEG-200, 1 a day x 4 days), 0%; in the assay on C. albicans C-43 (25 MPK PO in PEG-200, 1 a day x 4 days), 0%. In addition, the “%SURVIVAL” value with C. albicans C-43 (setting [6]) is on record as 20%. For the same compound, the “%ANIMALS NEG” value in the assay on Aspergillus flavus [1] (33 mg/kg PO [3RX/DAY] for 4 days, 18 days post infection, negative = <10 colonies) stood at 0%; in the assay on Aspergillus flavus [2] (setting [3]), 0%; with Aspergillus flavus [2] (setting [4]), 0%; with Aspergillus flavus [2] (setting [5]), 0%. For the same compound, the “CFUs (GM)” value in the assay on C. albicans C-43 (10 MPK PO in PEG-200) was determined as 9.00; with C. albicans C-43 (25 MPK PO in PEG-200), 9.00; in the assay on C. albicans C-43 (50 MPK PO in PEG-200) it was 7.84.
Regarding `CCC(CC)n1ncn(-c2ccc(N3CCN(c4ccc(OC[C@@H]5CO[C@@](Cn6cncn6)(c6ccc(F)cc6F)C5)cc4)CC3)cc2)c1=O` [IIc], the “oral activity against Aspergillus flavus pulmonary infections compared with itraconazole, fluconazole and saperconazole” value in the assay on Aspergillus flavus [2] (in vivo mouse model, PO, result in words) is given as “more active orally”. Further, in the assay with C. albicans C-65, the “activity against systemic candidiasis compared with itraconazole and saperconazole” value is “more active”. Besides, in the assay on Candida, the “activity against a Candida vaginal infection compared with itraconazole and saperconazole” value is “more active”.
With `CCC(C)n1ncn(-c2ccc(N3CCN(c4ccc(OC[C@H]5CO[C@](Cn6cncn6)(c6ccc(F)cc6F)O5)cc4)CC3)cc2)c1=O` (stereo partly shown) [Saperconazole, reference compound], in the assay with Aspergillus flavus [1] (head prints 50 mg/kg (third dose column, c3), in PEG-200 daily for 4 days, CF-1 mice), the “PERCENT SURVIVAL AFTER 5 DAYS (5D)” value amounted to 50. Further, the “%SURVIVAL” value with Aspergillus flavus [2] (setting [5]) is recorded as 0%; in the assay on C. albicans C-43 (setting [6]), 20%. In addition, the “%ANIMALS NEG” value in the assay with Aspergillus flavus [2] (setting [5]) came out at 0%. In the assay on C. albicans C-43 (50 MPK PO in PEG-200), the “CFUs (GM)” value was 8.20.

The values are drawn from EP0610377B1, “TRI-SUBSTITUTED TETRAHYDROFURAN ANTIFUNGALS” (SCHERING CORPORATION, priority 1991, dated 1993).
